In ChEMBL document CHEMBL1201862, “PubChem BioAssay data set” (2004):
The source made the active and inactive calls.

Experiments:
Kallikrein-7 = Kallikrein-7 (Homo sapiens, UniProt P49862); experiment: Fluorescence Intensity-based biochemical primary high throughput dose response assay to identify activators of kallikrein-7 (K7) zymogen.
cells [1] = assay type: functional, cell-based
[2] = biological target: T1, Trace amine-associated receptor 1 (Homo sapiens, UniProt Q96RJ0); experiment: Counterscreen for agonists of the human trace amine associated receptor 1 (hTAAR1): Fluorescence-based cell-based high throughput dose response assay to identify hTAAR1 agonist that also desensitize TAAR1 receptor response.; assay type: functional
T1 sequence (Q96RJ0 whole entry): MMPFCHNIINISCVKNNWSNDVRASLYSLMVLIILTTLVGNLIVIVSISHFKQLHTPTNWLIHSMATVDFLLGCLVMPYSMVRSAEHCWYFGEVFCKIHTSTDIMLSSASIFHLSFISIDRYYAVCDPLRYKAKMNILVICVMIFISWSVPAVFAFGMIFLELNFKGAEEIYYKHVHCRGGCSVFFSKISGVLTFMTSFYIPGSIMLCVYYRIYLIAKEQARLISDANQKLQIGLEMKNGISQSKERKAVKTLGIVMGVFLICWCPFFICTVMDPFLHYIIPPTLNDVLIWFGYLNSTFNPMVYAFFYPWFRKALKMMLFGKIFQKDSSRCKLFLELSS

[3] = biological target: T1, Trace amine-associated receptor 1; experiment: Fluorescence-based cell-based high throughput dose response assay to identify agonists of the human trace amine associated receptor 1 (TAAR1).; assay type: functional
cells [4] = assay type: functional, cell-based; remark: listed apart in the source
[5] = biological target: NAD-dependent protein deacylase sirtuin-5, mitochondrial (Homo sapiens, UniProt Q9NXA8); experiment: SIRT5 desuccinylase inhibitors, dose response, biochemical, fluorescence imaging, cherry-pick, set 5 (AID 720591);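 note: desuccinylation of succinyl peptide AMC substrate read as fluorescence after trypsin release; potency of inhibitors that lower fluorescence and may act on trypsin instead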
Sequence of NAD-dependent protein deacylase sirtuin-5, mitochondrial (Q9NXA8 whole entry): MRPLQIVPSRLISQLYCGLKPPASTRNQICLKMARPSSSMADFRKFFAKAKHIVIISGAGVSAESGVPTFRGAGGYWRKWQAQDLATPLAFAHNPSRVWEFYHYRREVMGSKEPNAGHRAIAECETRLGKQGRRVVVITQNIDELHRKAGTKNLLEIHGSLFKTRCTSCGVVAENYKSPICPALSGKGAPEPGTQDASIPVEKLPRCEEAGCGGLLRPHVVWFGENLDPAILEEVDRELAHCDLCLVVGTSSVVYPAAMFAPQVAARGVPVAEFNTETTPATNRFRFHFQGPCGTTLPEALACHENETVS

[6] = biological target: T2, Long-chain-fatty-acid--AMP ligase FadD28 (Mycobacterium tuberculosis, UniProt P9WQ59); experiment: Fluorescence polarization aasay to screen for inhibitors that compete for the binding of FadD28 to a bisubstrate Measured in Biochemical System Using Plate Reader - 2147-01_Inhibitor_Dose_CherryPick_Activity.; assay type: functional, Mycobacterium tuberculosis H37Rv
T2 sequence (P9WQ59 whole entry): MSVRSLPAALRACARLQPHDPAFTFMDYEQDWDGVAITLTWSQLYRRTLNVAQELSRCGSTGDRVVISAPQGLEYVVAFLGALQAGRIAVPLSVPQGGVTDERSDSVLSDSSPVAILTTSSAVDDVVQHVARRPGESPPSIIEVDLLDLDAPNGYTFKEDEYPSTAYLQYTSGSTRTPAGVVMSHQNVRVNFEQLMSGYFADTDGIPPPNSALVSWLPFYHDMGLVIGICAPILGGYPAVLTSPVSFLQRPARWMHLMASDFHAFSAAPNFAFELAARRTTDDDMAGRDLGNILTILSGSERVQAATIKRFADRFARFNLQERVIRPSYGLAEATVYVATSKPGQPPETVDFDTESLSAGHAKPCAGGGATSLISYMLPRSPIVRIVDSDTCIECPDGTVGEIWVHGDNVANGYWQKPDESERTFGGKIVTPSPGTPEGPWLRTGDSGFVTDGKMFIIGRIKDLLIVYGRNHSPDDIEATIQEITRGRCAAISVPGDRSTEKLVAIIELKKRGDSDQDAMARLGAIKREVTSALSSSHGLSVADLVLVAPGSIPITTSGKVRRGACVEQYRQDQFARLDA

[7] = biological target: T3, Methionyl-tRNA synthetase, putative (Trypanosoma brucei brucei, UniProt Q38C91); assay type: functional, Trypanosoma brucei brucei strain 927/4 GUTat10.1;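 note: Read-out by fluorescence polarization, run as a confirmatory high-throughput counterscreen; potency of MetRS inhibitors measured by reduced AMP formation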
T3 sequence (Q38C91 whole entry): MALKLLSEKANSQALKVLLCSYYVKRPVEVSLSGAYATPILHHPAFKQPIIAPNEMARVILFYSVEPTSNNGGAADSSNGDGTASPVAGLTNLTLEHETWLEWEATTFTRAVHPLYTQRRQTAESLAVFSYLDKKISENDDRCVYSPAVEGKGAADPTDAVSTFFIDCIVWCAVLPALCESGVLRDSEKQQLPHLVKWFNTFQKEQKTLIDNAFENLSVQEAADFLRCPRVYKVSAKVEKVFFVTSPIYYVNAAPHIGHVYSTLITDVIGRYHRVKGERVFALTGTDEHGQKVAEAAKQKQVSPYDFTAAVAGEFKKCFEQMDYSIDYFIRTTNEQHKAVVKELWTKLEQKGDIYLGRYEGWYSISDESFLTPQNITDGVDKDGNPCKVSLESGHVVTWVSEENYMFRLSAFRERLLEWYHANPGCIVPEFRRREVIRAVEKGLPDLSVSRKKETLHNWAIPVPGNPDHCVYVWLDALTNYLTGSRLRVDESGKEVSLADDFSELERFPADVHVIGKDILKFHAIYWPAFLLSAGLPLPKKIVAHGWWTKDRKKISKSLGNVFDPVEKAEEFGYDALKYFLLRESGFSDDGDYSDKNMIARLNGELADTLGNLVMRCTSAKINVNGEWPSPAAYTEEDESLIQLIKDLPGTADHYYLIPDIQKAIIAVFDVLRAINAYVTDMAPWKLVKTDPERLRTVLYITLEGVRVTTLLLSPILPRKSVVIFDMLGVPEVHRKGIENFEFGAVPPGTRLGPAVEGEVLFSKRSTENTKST

[8] = Counterscreen for inhibitors of Trypanosoma brucei methionyl tRNA synthetase (MetRS): Luminescence-based cell-based high throughput dose response assay to identify compounds that are cytotoxic to Jurkat human T lymphocyte cells.; assay type: functional
[9] = biological target: T4, RNA-editing ligase 1, mitochondrial (Trypanosoma brucei brucei, UniProt P86926); experiment: TbREL1 ligase inhibitors, dose response, biochemical, fluorescence, Trypanosoma brucei (AID 1117295); assay type: functional
T4 sequence (P86926 whole entry): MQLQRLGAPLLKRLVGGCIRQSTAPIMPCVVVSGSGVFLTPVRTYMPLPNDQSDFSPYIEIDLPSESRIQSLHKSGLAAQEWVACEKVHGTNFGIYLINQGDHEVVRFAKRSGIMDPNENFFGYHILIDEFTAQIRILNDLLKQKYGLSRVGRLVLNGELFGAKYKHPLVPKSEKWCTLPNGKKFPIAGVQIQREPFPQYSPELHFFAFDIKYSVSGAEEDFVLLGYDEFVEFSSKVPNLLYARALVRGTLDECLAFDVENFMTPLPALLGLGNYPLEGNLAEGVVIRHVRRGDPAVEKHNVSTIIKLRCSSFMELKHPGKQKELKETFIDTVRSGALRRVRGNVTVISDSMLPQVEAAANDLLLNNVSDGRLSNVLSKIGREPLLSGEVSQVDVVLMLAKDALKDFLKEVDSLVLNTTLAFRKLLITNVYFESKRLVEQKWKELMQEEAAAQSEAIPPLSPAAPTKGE

[10] = biological target: T5, Sentrin-specific protease 1 (Homo sapiens, UniProt Q9P0U3); experiment: potency of human SENP1 inhibitors, dose response, biochemical, kinetic FRET (AID 651697); assay type: functional; settings: read-out: IC50_Mean
T5 sequence (Q9P0U3 whole entry): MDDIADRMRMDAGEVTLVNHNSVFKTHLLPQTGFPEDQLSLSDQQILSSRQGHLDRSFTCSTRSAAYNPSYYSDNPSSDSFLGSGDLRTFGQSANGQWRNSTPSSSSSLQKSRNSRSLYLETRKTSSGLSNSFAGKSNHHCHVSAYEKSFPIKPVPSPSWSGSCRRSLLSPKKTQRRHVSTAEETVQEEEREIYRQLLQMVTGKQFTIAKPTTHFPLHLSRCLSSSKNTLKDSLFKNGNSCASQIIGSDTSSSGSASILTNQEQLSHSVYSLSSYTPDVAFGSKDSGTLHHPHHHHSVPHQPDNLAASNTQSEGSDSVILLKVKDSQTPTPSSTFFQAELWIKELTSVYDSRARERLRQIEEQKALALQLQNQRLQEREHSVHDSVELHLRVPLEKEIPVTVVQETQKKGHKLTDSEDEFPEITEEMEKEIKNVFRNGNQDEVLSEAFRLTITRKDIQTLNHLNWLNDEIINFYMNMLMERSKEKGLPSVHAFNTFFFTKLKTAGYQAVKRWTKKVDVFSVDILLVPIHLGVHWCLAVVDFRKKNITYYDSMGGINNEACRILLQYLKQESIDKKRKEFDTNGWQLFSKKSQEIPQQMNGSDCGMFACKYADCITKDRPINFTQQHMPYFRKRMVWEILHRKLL

[11] = biological target: T5, Sentrin-specific protease 1; experiment: Dose response confirmation of small molecule inhibitors of the catalytic domain of the SUMO protease, SENP1 in a FRET assay.; assay type: functional; settings: read-out: IC50_Mean
[12] = biological target: FAD-linked sulfhydryl oxidase ALR (Homo sapiens, UniProt P55789); experiment: inhibitors of human ALR sulfhydryl oxidase, dose response, biochemical, H2O2 detection, luminescence, cherry-pick (AID 493248)
Sequence of FAD-linked sulfhydryl oxidase ALR (P55789 whole entry): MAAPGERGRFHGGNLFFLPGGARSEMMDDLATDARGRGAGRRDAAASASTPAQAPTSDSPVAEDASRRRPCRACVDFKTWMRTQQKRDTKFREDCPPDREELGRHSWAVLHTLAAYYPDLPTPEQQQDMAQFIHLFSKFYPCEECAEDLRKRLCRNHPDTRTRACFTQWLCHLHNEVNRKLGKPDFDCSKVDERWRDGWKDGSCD

[13] = miR-122 activators in hepatoma reporter cells, dose response, cell-based, Huh7 psiCHECK-miR122, Renilla luciferase, cherry-picked (AID 651956); assay type: functional;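 note: huh7 hepatoma cells stably carrying a psiCHECK-2 miR-122 sensor plasmid; renilla luciferase signal reporting endogenous miR-122 activity after 48 h compound exposure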
[14] = biological target: T6, Tyrosyl-DNA phosphodiesterase 2 (Homo sapiens, UniProt O95551); experiment: human TDP2 enzyme inhibitors, dose response, biochemical, epi absorbance, IC50 (AID 743297)
T6 sequence (O95551 whole entry): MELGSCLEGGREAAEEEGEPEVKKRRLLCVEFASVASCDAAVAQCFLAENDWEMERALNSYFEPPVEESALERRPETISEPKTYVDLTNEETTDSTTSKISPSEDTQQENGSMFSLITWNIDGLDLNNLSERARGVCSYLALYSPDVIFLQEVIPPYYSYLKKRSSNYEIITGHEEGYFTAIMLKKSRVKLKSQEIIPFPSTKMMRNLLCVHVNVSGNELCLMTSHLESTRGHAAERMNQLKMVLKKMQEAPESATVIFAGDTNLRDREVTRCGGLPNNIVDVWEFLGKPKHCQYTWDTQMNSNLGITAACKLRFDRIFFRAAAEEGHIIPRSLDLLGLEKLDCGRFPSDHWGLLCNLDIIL

[15] = intracellular Trypanosoma cruzi inhibitors in host cells – cell-based, plate reader, cherry-pick samples, set 3, dose response (AID 651818); assay type: functional;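 note: compounds incubated with infected cells for about four days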
[16] = cytotoxicity in OVCAR8 ovarian cancer cells, dose response, PAX8 project, cell-based, plate reader, dry powder samples (AID 743197); assay type: functional; settings: OVCAR-8
[17] = non-specific cell cytotoxicity, dose response, cytotoxicity control for PAX8 inhibitor project, plate reader, dry powder samples (AID 743021); assay type: functional, cell-based
[18] = NIH:OVCAR-3 ovarian cancer cell cytotoxicity, dose response, PAX8 inhibitor project, plate reader, dry powder samples (AID 743044); assay type: functional, cell-based
Paired box protein Pax-8 = Paired box protein Pax-8 (Homo sapiens, UniProt Q06710); experiment: inhibitors of PAX8-driven TPO luciferase reporter, dose response, RMG-I cells, cherry-pick (AID 687027); assay type: functional, cell-based;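 note: luciferase reporter driven by Pax8 target thyroperoxidase promoter measured by SteadyGlo luminescence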
Sequence of Paired box protein Pax-8 (Q06710 whole entry): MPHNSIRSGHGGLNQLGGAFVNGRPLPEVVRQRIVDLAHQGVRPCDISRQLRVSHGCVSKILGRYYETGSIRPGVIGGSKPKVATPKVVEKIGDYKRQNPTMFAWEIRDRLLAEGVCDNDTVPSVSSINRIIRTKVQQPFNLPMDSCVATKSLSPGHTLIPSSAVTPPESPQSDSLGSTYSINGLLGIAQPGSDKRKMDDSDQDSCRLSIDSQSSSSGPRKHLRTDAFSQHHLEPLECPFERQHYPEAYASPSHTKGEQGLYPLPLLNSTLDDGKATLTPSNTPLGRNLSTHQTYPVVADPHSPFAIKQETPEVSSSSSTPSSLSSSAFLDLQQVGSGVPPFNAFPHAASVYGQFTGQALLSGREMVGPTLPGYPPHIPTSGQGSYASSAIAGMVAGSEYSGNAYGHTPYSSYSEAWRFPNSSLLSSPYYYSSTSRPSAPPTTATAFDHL

Sequence of Kallikrein-7 (P49862 whole entry): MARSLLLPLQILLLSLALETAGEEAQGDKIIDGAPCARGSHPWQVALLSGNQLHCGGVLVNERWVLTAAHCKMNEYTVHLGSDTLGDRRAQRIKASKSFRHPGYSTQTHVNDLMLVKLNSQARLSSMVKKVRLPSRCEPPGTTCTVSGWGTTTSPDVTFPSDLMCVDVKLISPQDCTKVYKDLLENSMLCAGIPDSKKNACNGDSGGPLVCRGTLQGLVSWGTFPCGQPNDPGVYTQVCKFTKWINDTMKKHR

Cc1c(C)c2c(OCC(=O)N[C@@H](CC(C)C)C(=O)O)cc3c(c2oc1=O)CCC(C)(C)O3
EC50 (Kallikrein-7): > 69.5 µM (inactive)

COc1ccc(CCNC(=O)/C=C/C(=O)O)cc1
EC50 (cells [1]): > 29.9 µM (inactive)
IC50 [2]: > 29.9 µM (inactive)
EC50 [3]: 10.4 µM (inactive)
IC50 (cells [4]): > 29.9 µM (inactive)

O=C1NNC(=O)C1c1ccccc1
AC50 [5]: > 30 µM (inactive)

Cc1ccc(NC(=O)CNc2ccccc2N2CCCC2=O)cc1S(=O)(=O)N1CCOCC1
AC50 [6]: 21.8 µM (active)

O=C(CSc1ccc(-c2nc3ccccc3[nH]2)cn1)Nc1ccc(S(=O)(=O)N2CCCC2)cc1
IC50 [7]: 8.73 µM (active)
IC50 [8]: 83.3 µM (inactive)
AC50 [6]: > 100 µM (inactive)

COCCNC(=O)c1cccc(OC2CCN(Cc3ccc(OC(F)F)cc3)CC2)c1
AC50 [5]: > 30 µM (inactive)

O=C(Nc1ccc2[nH]c(O)nc2c1)c1c(F)c(F)c(F)c(F)c1F
EC50 (Kallikrein-7): 22.9 µM (inactive)

CCc1ccc(NC(=O)C[n+]2cc(-c3ccc(C)cc3)n3c2CCC3)cc1
IC50 [9]: > 96.6 µM (inactive)

CC/C(=N\CCc1ccccc1)C1=C(O)CCC1=O
EC50 (cells [1]): > 29.9 µM (inactive)
IC50 [2]: 2.34 µM (active)
EC50 [3]: 0.351 µM (active)
IC50 (cells [4]): > 29.9 µM (inactive)

CCCCCn1nnnc1-c1nc2cc3ccccc3cc2nc1O
IC50 [10]: 4.94 µM (active)
IC50 [11]: 1.29 µM (active)

CCC1CN(C(=O)N2CCC(C(=O)Nc3ccccc3F)CC2)c2ccccc2O1 (stereo not drawn)
AC50 [5]: > 30 µM (inactive)

COc1cc(/C=C2/SC(=S)N(CC(=O)O)C2=O)ccc1OC(=O)c1ccco1
AC50 [12]: 3.74 µM (active)
IC50 [10]: 4.75 µM (active)
IC50 [11]: 5.86 µM (active)

C[C@H]1CN([C@@H](C)CO)C(=O)c2cc(-c3ccc(C#N)cc3)cnc2O[C@H]1CN(C)C(=O)Nc1ccc(C(F)(F)F)cc1
AC50 [13]: 7.44 µM (active)

CCCCn1c(NC(=O)c2ccc(Br)o2)c(C(=O)OCC)c2nc3ccccc3nc21
IC50 [14]: > 128 µM (inactive)

C[C@H]1CN([C@@H](C)CO)C(=O)Cc2cc(N(C)C)ccc2O[C@@H]1CN(C)Cc1ccc(C(=O)Nc2ccccc2N)cc1
AC50 [15]: 0.794 µM (active)

C[C@@H]1CCCCO[C@@H](CN(C)Cc2ccc(Cl)c(Cl)c2)[C@@H](C)CN([C@H](C)CO)C(=O)c2cc(NC(=O)c3ccccc3)ccc2O1
AC50 [15]: 6.25 µM (active)

C[C@@H]1CN([C@@H](C)CO)C(=O)Cc2cc(NC(=O)CCCCCC(=O)Nc3ccccc3N)ccc2O[C@@H]1CN(C)Cc1ccc(C(F)(F)F)cc1
AC50 [16]: 18 µM (active)
AC50 [17]: 45.4 µM (active)
AC50 [18]: 30.1 µM (active)
AC50 (Paired box protein Pax-8): 6.87 µM (active)

C[C@H](O)[C@@H]1C(=O)N2CCc3c([nH]c4ccccc34)[C@@H]2C[C@@H]1N(C)C(=O)NC1CCCCC1
EC50 (Kallikrein-7): 8.4 µM (active)

c1ccc2c(c1)CC1CNCc3cccc(c31)S2 (stereo not drawn)
EC50 (cells [1]): > 29.9 µM (inactive)
IC50 [2]: 7.1 µM (active)
EC50 [3]: 5.87 µM (active)
IC50 (cells [4]): > 29.9 µM (inactive)

COC(=O)C1=C(C)N(Cc2ccc(C(F)(F)F)cc2)C(NCC2CC2)=NC1c1ccccc1C(F)(F)F (stereo not drawn)
IC50 [9]: > 96.6 µM (inactive)

C[C@@H]1CN([C@@H](C)CO)C(=O)Cc2cc(NS(=O)(=O)c3ccccc3)ccc2O[C@@H]1CN(C)S(=O)(=O)c1ccc(Cl)cc1
AC50 [15]: 6.08 µM (active)
